Results: PMC6523382 (Pharmaceutics, 2019)
pIC50: −log10 of the molar value. Where two headings read alike, the source gives them in different places.

Legend:
[1] = biological target: T1, OCT2 (Homo sapiens, UniProt O15244); assay: Inhibition of OCT2-mediated [14C]metformin uptake in HEK293-OCT2 cells; type: cell-based; design: host or cells: HEK293
T1 sequence (O15244 1-555): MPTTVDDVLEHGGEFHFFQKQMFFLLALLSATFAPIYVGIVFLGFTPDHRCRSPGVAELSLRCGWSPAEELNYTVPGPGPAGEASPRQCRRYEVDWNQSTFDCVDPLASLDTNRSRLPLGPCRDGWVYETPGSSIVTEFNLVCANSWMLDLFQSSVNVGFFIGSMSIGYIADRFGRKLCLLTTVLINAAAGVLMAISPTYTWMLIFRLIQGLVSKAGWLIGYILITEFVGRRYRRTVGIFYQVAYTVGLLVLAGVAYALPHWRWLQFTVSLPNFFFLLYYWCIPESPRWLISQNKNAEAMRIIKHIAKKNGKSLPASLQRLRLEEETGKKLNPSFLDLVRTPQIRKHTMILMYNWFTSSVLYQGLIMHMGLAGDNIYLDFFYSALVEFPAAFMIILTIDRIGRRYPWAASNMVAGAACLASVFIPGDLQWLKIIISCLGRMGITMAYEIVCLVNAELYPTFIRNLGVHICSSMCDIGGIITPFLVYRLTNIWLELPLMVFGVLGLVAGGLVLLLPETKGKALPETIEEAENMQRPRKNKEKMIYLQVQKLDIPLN
Method: (§1) HEK293 cells overexpressing OCT1, OCT2, MATE1, and MATE2-K (HEK293-OCT1, -OCT2, MATE1, and MATE2-K, respectively; Corning, Tewksbury, MA, USA) were used and characterized as previously described. […] In HEK293-MATE1 or -MATE2-K cells, 2 mM sodium butyrate was also supplemented in the culture medium. […] Sigma, St. Louis, MO, USA) and incubated for 30 min in HBSS. In HEK293-MATE1, or -MATE2-K cells, 40 mM ammonium chloride was also added for the outwardly directed proton gradient. […] After the 5 min incubation, cells were washed three times with 200 µL of ice-cold HBSS immediately after placing the plates on ice. Then, the cells were lysed with 10% sodium dodecyl sulfate (SDS) and the cell lysates were mixed with Optiphase cocktail solution. Thereafter, the radioactivity of the cell lysates was measured using a liquid scintillation counter (Microbeta 2, Perkin Elmer Inc., Boston, MA, USA).

[2] = biological target: T2, MATE1 (Homo sapiens, UniProt Q96FL8); conditions: read-out: IC50 for MATE1 reported in the literature; cited from earlier work
T2 sequence (Q96FL8 1-570): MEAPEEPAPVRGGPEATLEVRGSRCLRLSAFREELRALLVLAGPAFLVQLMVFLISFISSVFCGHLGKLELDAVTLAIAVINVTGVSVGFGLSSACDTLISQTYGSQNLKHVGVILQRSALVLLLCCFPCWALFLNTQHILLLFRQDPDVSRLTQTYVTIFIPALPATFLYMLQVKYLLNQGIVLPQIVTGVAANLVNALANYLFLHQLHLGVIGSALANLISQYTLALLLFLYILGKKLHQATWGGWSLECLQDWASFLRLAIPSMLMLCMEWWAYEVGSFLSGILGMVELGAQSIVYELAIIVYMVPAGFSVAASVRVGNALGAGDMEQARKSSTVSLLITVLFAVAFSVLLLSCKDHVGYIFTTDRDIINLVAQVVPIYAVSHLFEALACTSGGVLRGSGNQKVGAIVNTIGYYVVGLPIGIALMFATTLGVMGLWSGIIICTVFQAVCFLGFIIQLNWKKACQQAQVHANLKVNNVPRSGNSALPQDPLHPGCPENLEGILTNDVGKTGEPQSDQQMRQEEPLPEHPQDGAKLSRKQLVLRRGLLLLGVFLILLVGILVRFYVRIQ

[3] = biological target: T3, OCT1 (Homo sapiens, UniProt O15245); assay: Inhibition of OCT1-mediated [14C]metformin uptake in HEK293-OCT1 cells; type: cell-based; design: host or cells: HEK293
T3 sequence (O15245 1-554): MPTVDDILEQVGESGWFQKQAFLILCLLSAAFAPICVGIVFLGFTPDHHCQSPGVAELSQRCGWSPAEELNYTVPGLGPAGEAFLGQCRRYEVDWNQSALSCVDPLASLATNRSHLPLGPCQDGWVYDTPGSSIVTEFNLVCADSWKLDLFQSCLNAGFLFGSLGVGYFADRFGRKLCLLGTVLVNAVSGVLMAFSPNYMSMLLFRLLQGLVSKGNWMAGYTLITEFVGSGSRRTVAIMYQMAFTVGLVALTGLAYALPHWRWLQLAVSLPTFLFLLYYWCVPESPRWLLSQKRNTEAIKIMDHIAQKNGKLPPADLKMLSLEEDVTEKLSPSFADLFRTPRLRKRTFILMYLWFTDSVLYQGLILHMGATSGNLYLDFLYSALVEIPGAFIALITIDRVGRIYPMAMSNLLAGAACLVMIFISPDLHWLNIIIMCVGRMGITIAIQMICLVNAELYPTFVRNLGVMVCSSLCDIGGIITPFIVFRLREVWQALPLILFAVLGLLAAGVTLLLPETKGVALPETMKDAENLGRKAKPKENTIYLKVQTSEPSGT
Method: as §1

[4] = biological target: T4, MATE2-K (Homo sapiens, UniProt Q86VL8); conditions: read-out: IC50 for MATE2-K reported in the literature; cited from earlier work
T4 sequence (Q86VL8 1-566 isoform Q86VL8-3): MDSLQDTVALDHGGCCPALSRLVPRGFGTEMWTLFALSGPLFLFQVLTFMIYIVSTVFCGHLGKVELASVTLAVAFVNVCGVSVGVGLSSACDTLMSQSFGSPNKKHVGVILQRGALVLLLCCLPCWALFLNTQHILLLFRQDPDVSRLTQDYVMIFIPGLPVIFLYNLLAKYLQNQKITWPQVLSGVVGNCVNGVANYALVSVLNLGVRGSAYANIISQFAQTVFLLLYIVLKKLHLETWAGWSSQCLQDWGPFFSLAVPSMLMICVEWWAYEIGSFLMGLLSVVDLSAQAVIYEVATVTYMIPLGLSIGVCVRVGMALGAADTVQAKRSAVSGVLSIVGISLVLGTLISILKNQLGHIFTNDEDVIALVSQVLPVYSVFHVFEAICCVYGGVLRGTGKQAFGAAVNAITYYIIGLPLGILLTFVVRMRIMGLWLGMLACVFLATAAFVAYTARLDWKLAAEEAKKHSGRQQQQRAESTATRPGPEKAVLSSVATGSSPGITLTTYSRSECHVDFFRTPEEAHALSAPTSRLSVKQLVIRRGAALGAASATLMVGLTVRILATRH

[5] = biological target: T1, OCT2; conditions: read-out: IC50 for OCT2 reported in the literature; cited from earlier work
[6] = biological target: T3, OCT1; conditions: read-out: IC50 for OCT1 reported in the literature; cited from earlier work
[7] = biological target: T4, MATE2-K; assay: Inhibition of MATE2-K-mediated [14C]metformin uptake in HEK293-MATE2-K cells; type: cell-based; design: host or cells: HEK293; conditions: read-out: IC50 on MATE2-K-mediated metformin uptake, 10 µM [14C]metformin, 5 min
Method: as §1

**Q.** What does the source list for `CN/C(=N/CCSCc1nc[nH]c1C)NC#N` [cimetidine]?
**A.** pIC50 [1]: 3.70; pIC50 [2]: 6.15; pIC50 [3]: 4.21; pIC50 [4]: 5.32; pIC50 [5]: 3.96; pIC50 [6]: 4.24; pIC50 [7]: 5.30
